In paper PMC10117910, “Recombinant production, purification, and biochemical characterization of a novel L-lactate dehydrogenase from Bacillus cereus NRC1 and inhibition study of mangiferin” (Frontiers in Bioengineering and Biotechnology, 2023):

Columns and labels:
[1] = target: T1, L-lactate dehydrogenase (Bc-LDH) (Bacillus cereus, UniProt Q81EP4); assay: LDH activity assay (NADH absorbance at […] nm) of purified enzyme; Lineweaver-Burk and Dixon plots; assay type: biochemical
T1 construct: gene ldh1; full-length, 314 amino acids (GenBank BDI00612.1), recombinant from pET28-Bc-LDH in E. coli BL21 (DE3)

[2] = target: Bacillus cereus NRC1 L-lactate dehydrogenase (Bacillus cereus NRC1) (UniProt P0A392); assay: SEC; gel filtration on a calibrated Sephacryl S-300 column (142 cm × 1.75 cm i.d.), eluted with 0.02 M phosphate buffer pH 7.5; native mass compared with the subunit mass by SDS-PAGE (35 kDa)

T1 sequence (Q81EP4 whole entry): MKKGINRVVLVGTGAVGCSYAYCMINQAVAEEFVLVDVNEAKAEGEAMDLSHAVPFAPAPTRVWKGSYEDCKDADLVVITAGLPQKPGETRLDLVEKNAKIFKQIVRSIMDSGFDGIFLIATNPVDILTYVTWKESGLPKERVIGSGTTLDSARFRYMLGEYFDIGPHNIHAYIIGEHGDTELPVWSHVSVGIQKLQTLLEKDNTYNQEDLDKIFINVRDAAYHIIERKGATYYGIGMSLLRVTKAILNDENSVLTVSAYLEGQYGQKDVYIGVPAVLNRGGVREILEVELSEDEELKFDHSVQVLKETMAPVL

Compound	Ki [1] [µM]	stoichiometry N [2]
O=c1c2cc(O)c(O)cc2oc2cc(O)c([C@@H]3O[C@H](CO)[C@@H](O)[C@H](O)[C@H]3O)c(O)c12 [mangiferin, 2-β-D-glucopyranosyl-1,3,6,7-tetrahydroxy-9H-xanthen-9-one]	75	
Bacillus cereus NRC1 L-lactate dehydrogenase (from UniProt P0A392 1-366) (enzyme)		4
